The record followed here is PubChem BioAssay (NCI).

SMILES strings stand for the structures.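 These data come from cells grown in 96-well plates and exposed to compound for 48 hours at five concentrations. At the GI50, growth is halved. TGI denotes the concentration required for complete inhibition of growth.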 Where a SMILES comes first, the peptide text is derived from it. [ ]: non-standard residue; d: D form. pGlu = O=C1CC[CH](C(=O)O)N1

What all share (test): NCI anticancer screen, dose series, 48 h
Assay [1] deals with HT29 colon.
Assay [2] relates to A498 renal.
Assay [3] deals with NCI-H23 lung.
In assay [4] the test system is IGROV1 ovarian.
The subject of assay [5] is HCT-116 colon.
For assay [6], the system named is COLO 205 colon.
The subject of assay [7] is CCRF-CEM leukemia.
The test system of assay [8] is 786-0 renal.
The test system of assay [9] is SK-MEL-5 melanoma.
For assay [10], the system named is T-47D breast.
Assay [11] relates to DU-145 prostate.

Take `COc1cc2cc3c4c(cc(OC)c(OC)c4c2cc1OC)CCN3C(=O)N(C)C`: the TGI in assay [1] was over 100 µM; in assay [2], over 100 µM; in assay [3], over 10 µM; in [4] it was over 100 µM; in assay [5], over 100 µM; in assay [6], over 100 µM. Further, the TGI in [7], in assay [8] and in [9] was over 100 µM in each case.
Take `O=c1oc2c/c(=C\c3ccccc3)c(=O)c3cccc1c3-2`: the TGI is over 100 µM in assay [1]; over 100 µM in assay [2]; over 100 µM in assay [3]; 56.7 µM in [4]; 71.2 µM in assay [5]; over 100 µM in assay [6]. Also, the TGI in assay [8] was 53.9 µM; in assay [10], 55.5 µM; in [11] it was over 100 µM.
As for `Cn1c(N=[N+]=[N-])cc(=O)n(C)c1=O`, the TGI in [1], in [2], in assay [3], in assay [4], in assay [5] and in assay [6] was over 100 µM throughout. Besides, the TGI in [7], in [8], in assay [10] and in [9] was over 100 µM each time.
For the molecule `CCOC(=O)C1C[C@H]2CO[C@H](c3ccccc3)N2C1=O` (stereo partly specified), the TGI in assay [1], in [3], in [4], in assay [5], in [6] and in [7] was over 100 µM each time. Further, the TGI in assay [8], in assay [10], in assay [9] and in [11] was over 100 µM each time.
For `CCC/C(Cl)=N\OC(=O)Nc1ccc(F)c([N+](=O)[O-])c1`, the TGI in assay [1] was 45.3 µM; in [2] it was 48.4 µM; in assay [3] it was 28.1 µM; in assay [4] it was 28.7 µM; in [5] it was over 100 µM; in assay [6], 12 µM. Further, the TGI in assay [7] is over 100 µM; in assay [8] it was 40 µM; in assay [9] it was 35.2 µM; in assay [11], 28.6 µM.
Turning to `CC(NC(=O)C(Cc1cnc[nH]1)NC(=O)C1CCC(=O)N1)C(N)=O` (stereo not drawn) ([pGlu]-His-Ala-NH2; configuration not given here), the TGI in assay [1], in assay [3], in assay [4], in [5], in assay [6] and in [7] was over 100 µM in each case. Further, the TGI in assay [8], in assay [10], in assay [9] and in assay [11] was over 100 µM each time.
With `CC1(C)OCC(COC(=O)NCn2cc(-c3ccccc3)nn2)O1` (stereo unspecified), the TGI in [1], in [3], in assay [4], in assay [5], in assay [6] and in [7] was over 100 µM in each case. In addition, the TGI in assay [8], in [9] and in [11] was over 100 µM each time.
With `CC1=Nc2c(C#N)ncn2N=C(C)C1`, the TGI in assay [1], in assay [2], in assay [3], in [4], in [5] and in assay [6] was over 100 µM in each case. Besides, the TGI in assay [7], in assay [8], in assay [9] and in assay [11] was over 100 µM in each case.
`N#CCSc1c(-c2ccccc2)c(=O)n(-c2ccccc2)c(=S)n1-c1ccccc1`: the TGI in assay [1], in [3], in [4], in assay [5], in assay [6] and in assay [7] was over 100 µM in each case. In addition, the TGI in [8], in [10] and in [9] was over 100 µM in each case.
Regarding `Cn1cc(-c2nc(-c3c[nH]c4ccncc34)cs2)c2cc(F)ccc21`, the GI50 was 1.44 µM in [1]; 1.8 µM in [2]; 1.72 µM in [3]; 1.86 µM in [4]; 1.63 µM in assay [5]; 1.65 µM in assay [9]. For the same molecule, the GI50 in [11] is 1.71 µM. Also, the TGI in [1] came to 2.93 µM; in [2], 3.43 µM; in assay [3], 3.25 µM; in assay [4], 3.41 µM; in assay [5] it was 3.28 µM; in [9], 3.03 µM. The molecule also came in with a TGI in [11] of 3.14 µM.
For `Cc1c(O)c(=O)ccn1CCc1c[nH]c2ccccc12`, the TGI was 32.7 µM in [1]; over 100 µM in assay [3]; over 100 µM in assay [5]; 73.9 µM in assay [6]; 9.06 µM in assay [8]; 78 µM in [10]. Further, the TGI in assay [9] came to 24.1 µM; in assay [11], 35.4 µM.
For `COc1cc([C@@H]2c3cc4c(cc3[C@@H](N=Cc3ccc(C(=O)O[C@@H](C(=O)O[C@H]5C[C@@]6(O)[C@@H](OC(=O)c7ccccc7)[C@@H]7[C@]8(OC(C)=O)CO[C@@H]8C[C@H](O)[C@@]7(C)C(=O)[C@H](OC(C)=O)C(=C5C)C6(C)C)[C@@H](NC(=O)c5ccccc5)c5ccccc5)cc3)[C@H]3COC(=O)[C@H]23)OCO4)cc(OC)c1O`, the TGI in assay [1] is 1.92 µM; in [2], 26.2 µM; in assay [3], over 18.5 µM; in assay [4], over 50 µM; in assay [5], over 50 µM; in [8], over 50 µM. Moreover, the TGI is over 50 µM in assay [10], over 50 µM in assay [9] and over 42.5 µM in assay [11].
As for `NC(=O)CCC(NC(=O)c1cccc2c(=O)c3ccccc3[nH]c12)C(=O)O` (stereo unspecified), the TGI in [1], in [2], in assay [3], in [4], in assay [5] and in [6] was over 100 µM in each case. The TGI in assay [8], in assay [9] and in [11] was over 100 µM in each case.
